Test results from ChEMBL document CHEMBL3877329, “Antiprotozoal glutathione derivatives with flagellar membrane binding activity against T. brucei rhodesiense” (Bioorg Med Chem, 2017).
Activity calls are given as the source filed them. No cut-off for these calls is given here.

Assays:
[1] = Cytotoxicity against human KB cells after 3 days by fluorometric assay; type: toxicity, cell-based; settings: read-out: ED50
[2] = system: Trypanosoma brucei rhodesiense; assay: Antitrypanosomal activity against Trypanosoma brucei rhodesiense STIB900 bloodstream trypomastigote forms measured on day 3 post treatment by alamar blue assay; type: functional; settings: STIB900, 72 h, read-out: ED50 (the source's name)
[3] = Selectivity index, ratio of ED50 for human KB cells to ED50 for Trypanosoma brucei rhodesiense STIB900 bloodstream trypomastigote forms; type: toxicity, cell-based; settings: read-out: Ratio ED50
Trypanosoma cruzi = assay: Antitrypanosomal activity against Trypanosoma cruzi MHOM/BR/OO/Y trypomastigotes infected in CD1 mouse peritoneal macrophages after 3 days; type: functional; settings: 72 h, read-out: ED50 (the source's name)
Leishmania donovani = assay: Antileishmanial activity against Leishmania donovani MHOM/ET/67/HU3 amastigotes infected in CD1 mouse peritoneal macrophages after 5 days; type: functional; settings: for EC50: MHOM/ET/67/HU3, 120 h, read-out: ED50 (the source's name)
[4] = Drug release from Trypanosoma brucei brucei S247 bloodstream forms cell membrane treated with N-benzyloxy carbonyl-S-(4-bromobenzyl)glutathione dimethyl ester at 50 uM after 120 mins in presence of 6 M urea by HPLC-UV method; type: ADME, tissue-based; settings: blood, 2 h
[5] = Drug release from Trypanosoma brucei brucei S247 bloodstream forms cell membrane treated with N-benzyloxy carbonyl-S-(4-bromobenzyl)glutathione dimethyl ester at 50 uM after 120 mins in presence of 1 M NaCl by HPLC-UV method; type: ADME; settings: 2 h
Mus musculus = species on record: Mus musculus; assay: Cytotoxicity against CD1 mouse peritoneal macrophages assessed as induction of cell membrane lysis at 30 uM by optical microscopic method; type: toxicity; settings: peritoneal macrophage
[6] = system: Trypanosoma brucei brucei; assay: Antitrypanosomal activity against Trypanosoma brucei brucei S247 bloodstream forms assessed as swelling of parasite head at 50 uM after 5 mins by optical microscopic method; type: functional
[7] = system: Trypanosoma brucei brucei; assay: Antitrypanosomal activity against Trypanosoma brucei brucei S247 bloodstream forms assessed as circular appearance at 50 uM after 30 to 40 mins by optical microscopic method; type: functional
[8] = Drug release fromTrypanosoma brucei brucei S247 bloodstream forms cell membrane at 50 uM after 120 mins in presence of 1 M NaCl by HPLC-UV method; type: ADME; settings: trypanosoma brucei brucei, 2 h
[9] = system: Trypanosoma brucei brucei; assay: Antitrypanosomal activity against Trypanosoma brucei brucei S247 bloodstream forms assessed as immobility of parasite at 50 uM up to 1 min by optical microscopic method; type: functional
[10] = system: Trypanosoma brucei brucei; assay: Antitrypanosomal activity against Trypanosoma brucei brucei S247 bloodstream forms; type: functional; settings: read-out: ED50 (the source's name)
[11] = Drug uptake in Trypanosoma brucei brucei S247 bloodstream forms at 50 uM after 5 mins by HPLC-UV method; type: ADME
[12] = system: Trypanosoma brucei brucei; assay: Antitrypanosomal activity against Trypanosoma brucei brucei S247 bloodstream forms assessed as swirling motion of cell particles at 50 uM after 1 hr by optical microscopic method; type: functional
[13] = Drug release from Trypanosoma brucei brucei S247 bloodstream forms cell membrane at 50 uM after 120 mins in presence of 6 M urea by HPLC-UV method; type: ADME, tissue-based; settings: blood, 2 h

EC50 [2] [µM]	EC50 (Trypanosoma cruzi) [µM]	EC50 (Leishmania donovani) [µM]	Compound	CC50 at 72 h [1] [µM]	selectivity ratio [3]	other results
1.16	> 30	> 30	CCCCOC(=O)CNC(=O)[C@H](CSc1ccc([N+](=O)[O-])cc1[N+](=O)[O-])NC(=O)CC[C@H](NC(=O)CC(C)C)C(=O)OCCCC	59.6	51.4	
2.15	30.4	> 30	CCCCOC(=O)CNC(=O)[C@H](CSc1ccc([N+](=O)[O-])cc1[N+](=O)[O-])NC(=O)CC[C@H](NC(=O)OC)C(=O)OCCCC	> 300	> 139	
0.55	22.9		CCCCOC(=O)CNC(=O)[C@H](CSc1ccc([N+](=O)[O-])cc1[N+](=O)[O-])NC(=O)CC[C@H](NC(=O)c1ccccc1)C(=O)OCCCC	> 300	> 545	
1.02			CCCCOC(=O)CNC(=O)[C@H](CSc1ccc([N+](=O)[O-])cc1[N+](=O)[O-])NC(=O)CC[C@H](NC(=O)CCC(C)C)C(=O)OCCCC	84	82.3	
6.52	37.8		CCCCOC(=O)CNC(=O)[C@H](CSc1ccc([N+](=O)[O-])cc1[N+](=O)[O-])NC(=O)CC[C@H](NC(C)=O)C(=O)OCCCC	> 300	> 46	
0.3	35		CCCCOC(=O)CNC(=O)[C@H](CSc1ccc([N+](=O)[O-])cc1[N+](=O)[O-])NC(=O)CC[C@H](NC(=O)CCc1c[nH]c2ccccc12)C(=O)OCCCC	26	87	
2.02	> 30	> 30	CCCCOC(=O)CNC(=O)[C@H](CSc1ccc([N+](=O)[O-])cc1[N+](=O)[O-])NC(=O)CC[C@H](NC(=O)CCc1ccccc1)C(=O)OCCCC	> 300	> 148	
0.6	> 30		CCCCOC(=O)CNC(=O)[C@H](CSc1ccc([N+](=O)[O-])cc1[N+](=O)[O-])NC(=O)CC[C@H](NC(=O)COc1ccccc1)C(=O)OCCCC	> 300	> 500	
0.28	> 30		CCCCOC(=O)CNC(=O)[C@H](CSc1ccc([N+](=O)[O-])cc1[N+](=O)[O-])NC(=O)CC[C@H](NC(=O)/C=C/c1ccccc1)C(=O)OCCCC	34.4	123	
0.42		> 30	CCCCOC(=O)CNC(=O)[C@H](CSc1ccc([N+](=O)[O-])cc1[N+](=O)[O-])NC(=O)CC[C@H](NC(=O)OCc1ccccc1)C(=O)OCCCC	95.2	227	
4.38	12		CCCCOC(=O)CNC(=O)[C@H](CSc1ccc([N+](=O)[O-])cc1[N+](=O)[O-])NC(=O)CC[C@H](NC(=O)CC(C)(C)C)C(=O)OCCCC	250	57.1	

The next lines start with the compound.

Compound	EC50 [2] [µM]	EC50 (Trypanosoma cruzi) [µM]	EC50 (Leishmania donovani) [µM]	CC50 at 72 h [1] [µM]	selectivity ratio [3]	other results
CCCCOC(=O)CNC(=O)[C@H](CSc1ccc([N+](=O)[O-])cc1[N+](=O)[O-])NC(=O)CC[C@H](Nc1nc(N)nc(Cl)n1)C(=O)OCCCC	18.8			> 300	> 15.9	
COC(=O)CNC(=O)[C@H](CSCc1ccc(Br)cc1)NC(=O)CC[C@H](NC(=O)OCc1ccccc1)C(=O)O						Drug uptake [4]: 8%; Drug uptake [5]: 24%
CCCCOC(=O)CNC(=O)[C@H](CSc1ccc([N+](=O)[O-])cc1[N+](=O)[O-])NC(=O)CC[C@H](NC(=O)OC12CC3CC(CC(C3)C1)C2)C(=O)OCCCC	0.5	4.5	10.1	> 300	> 600	
CCCCOC(=O)CNC(=O)[C@H](CSc1ccc([N+](=O)[O-])cc1[N+](=O)[O-])NC(=O)CC[C@H](NC(=O)C(C)(C)C)C(=O)OCCCC	0.6	8.4		83.4	139	
O=C(O)CNC(=O)[C@H](CSCc1ccc(Br)cc1)NC(=O)CC[C@H](NC(=O)OCc1ccccc1)C(=O)O						Drug uptake [4]: 12%
O=C(Cn1ccnc1[N+](=O)[O-])NCc1ccccc1 [BENZNIDAZOLE]		4.4				
CCCCOC(=O)CNC(=O)[C@H](CSc1ccc([N+](=O)[O-])cc1[N+](=O)[O-])NC(=O)CC[C@H](N)C(=O)OCCCC	1.88		19.9	107	57.1	Activity (Mus musculus): Toxic
CCCCOC(=O)CNC(=O)[C@H](CSc1ccc([N+](=O)[O-])cc1[N+](=O)[O-])NC(=O)CC[C@H](NC(=O)OC(C)(C)C)C(=O)OCCCC	0.22	16.5	9.9	70.4	320	
Sodium stibogluconate						ED50 (Leishmania donovani): 33 µg/mL
CCCCOC(=O)CNC(=O)[C@H](CSc1ccc([N+](=O)[O-])cc1[N+](=O)[O-])NC(=O)CC[C@H](NC(=O)C(C)C)C(=O)OCCCC	0.73	30.8		> 300	> 411	
N=C(N)c1ccc(OCCCCCOc2ccc(C(=N)N)cc2)cc1	0.00033					
COC(=O)CNC(=O)[C@H](CSCc1ccc(Br)cc1)NC(=O)CC[C@H](NC(=O)OCc1ccccc1)C(=O)OC						Activity [6]: Active; Activity [7]: Active; Drug uptake [8]: 76%; Activity [9]: Active; EC50 [10]: 30 µM; Drug uptake [11]: Active; Activity [12]: Active; Drug uptake [13]: 80%
CCCCOC(=O)CNC(=O)[C@H](CSc1ccc([N+](=O)[O-])cc1[N+](=O)[O-])NC(=O)CC[C@H](Nc1ccc([N+](=O)[O-])cc1[N+](=O)[O-])C(=O)OCCCC	0.72			> 300	> 417	
N[C@@H](CCC(=O)N[C@@H](CSc1ccc([N+](=O)[O-])cc1[N+](=O)[O-])C(=O)NCC(=O)O)C(=O)O	> 30	> 30	> 30			
CCCCCCCCCCCCCC(=O)N[C@@H](CCC(=O)N[C@@H](CSc1ccc([N+](=O)[O-])cc1[N+](=O)[O-])C(=O)NCC(=O)OCCCC)C(=O)OCCCC	32.6	> 30		> 300	> 9.2	
